In publication PMC8779255, “Determining the Anticancer Activity of Sphingosine Kinase Inhibitors Containing Heteroatoms in Their Tail Structure” (Pharmaceutics, 2022):

Legend:
[1] = system: S1P in HCT116 cells; assay: S1P ELISA of cell lysate; type: cell-based, human
Protocol: The cellular levels of S1P, sphingosine, and ceramide were detected using an ELISA assay kit (MyBioSource, Inc., San Diego, CA, USA) according to the manufacturer’s instruction. For S1P ELISA, 100 µL cell lysates or standards were added in pre-coated ELISA wells, incubated for 90 min at 37 °C, and treated with 1x biotinylated anti S1P antibody for 1 h. Following treatment of HRP conjugated secondary antibody, the substrate was added and allowed to change the color for 15 min; then, the stop solution was added and absorbance was measured at 450 nm using a Multiskan GO (Thermo Scientific, Waltham, MA, USA) microplate spectrophotometer. […] A stop solution (50 µL) was added to each well, and optical density was measured at 450 nm using a microplate reader. […] After incubation, 50 µL substrate A and B was added to the plate and incubated at 37 °C for 20 min; a stop solution (50 µL) was added to each well and optical density was determined at 450 nm using a microplate reader. The concentration of S1P, sphingosine, and ceramide were calculated as ng/mL using respective standard curves constructed by Skanlt microplate reader software 5.0 (Thermo Scientific, Waltham, MA, USA).

[2] = molecular target: T1, CYP3A4 (Homo sapiens, UniProt P08684); assay: Inhibition of CYP enzymes activity, human liver microsomes; type: in vitro ADME; details: human liver microsomes 0.25 mg/mL, 10 μM, midazolam substrate
T1 construct: Human liver microsomes (0.25 mg/mL); from tissue; host or cells: human liver microsomes
T1 sequence (P08684 whole entry): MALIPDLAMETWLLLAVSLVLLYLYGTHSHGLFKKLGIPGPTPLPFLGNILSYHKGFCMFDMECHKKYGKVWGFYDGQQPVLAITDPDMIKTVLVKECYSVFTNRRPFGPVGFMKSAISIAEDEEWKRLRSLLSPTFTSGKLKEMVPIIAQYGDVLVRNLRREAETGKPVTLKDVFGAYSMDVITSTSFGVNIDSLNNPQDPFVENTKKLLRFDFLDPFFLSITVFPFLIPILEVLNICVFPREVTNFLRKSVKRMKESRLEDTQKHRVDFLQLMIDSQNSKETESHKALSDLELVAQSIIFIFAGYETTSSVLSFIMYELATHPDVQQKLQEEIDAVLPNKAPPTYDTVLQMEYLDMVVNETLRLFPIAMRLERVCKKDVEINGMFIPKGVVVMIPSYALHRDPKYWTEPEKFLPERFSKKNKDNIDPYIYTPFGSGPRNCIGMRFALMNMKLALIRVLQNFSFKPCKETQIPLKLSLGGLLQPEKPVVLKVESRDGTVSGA
Protocol: (§2) By simultaneously analyzing metabolites, the ability of the six compounds to inhibit drug metabolism enzymes was evaluated.
(§3) Metabolites of each CYP coenzyme indicator drug generated through the above reaction were analyzed using the Shimadzu Nexera XR system and TSQ vantage (Thermo). The HPLC column was a Kinetex C18 column (2.1 × 100 mm^2, 2.6 μm particle size; Phenomenex, Torrance, CA, USA), and the mobile phase was distilled water (A) containing 0.1% formic acid and acetonitrile (B) containing 0.1% formic acid. […] The generated metabolites were quantified using MRM (Multiple Reaction Monitoring) quantification modes, and data were analyzed using Xcalibur (version 1.6.1).

[3] = molecular target: T2, CYP1A2 (Homo sapiens, UniProt P05177); assay: as above; details: human liver microsomes 0.25 mg/mL, 10 μM, phenacetin substrate
T2 sequence (P05177 1-516): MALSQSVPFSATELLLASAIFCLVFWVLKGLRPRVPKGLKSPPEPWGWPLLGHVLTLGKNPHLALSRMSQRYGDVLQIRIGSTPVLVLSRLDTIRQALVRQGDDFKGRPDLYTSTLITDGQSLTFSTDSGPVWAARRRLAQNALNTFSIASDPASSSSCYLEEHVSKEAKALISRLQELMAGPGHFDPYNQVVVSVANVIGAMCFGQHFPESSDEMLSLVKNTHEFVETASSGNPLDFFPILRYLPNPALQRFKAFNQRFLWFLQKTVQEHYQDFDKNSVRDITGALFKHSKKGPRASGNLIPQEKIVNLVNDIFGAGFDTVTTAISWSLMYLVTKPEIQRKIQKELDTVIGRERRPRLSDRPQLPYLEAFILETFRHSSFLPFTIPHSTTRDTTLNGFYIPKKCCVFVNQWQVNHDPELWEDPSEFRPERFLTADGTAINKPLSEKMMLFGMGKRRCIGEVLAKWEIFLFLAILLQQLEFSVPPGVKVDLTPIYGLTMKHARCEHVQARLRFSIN
Protocol: Afterward, to terminate the reaction, an acetonitrile solution containing an internal standard (terfenadine) was added, centrifuged for 5 min (14,000 rpm, 4 °C), and the supernatant was injected into the LC-MS/MS system. By simultaneously analyzing metabolites, the ability of the six compounds to inhibit drug metabolism enzymes was evaluated.
as §3

[4] = In vitro metabolic stability in liver microsomes; type: in vitro ADME, rat
[5] = system: SK1 in HCT116 cells; assay: Western blotting of SK1 protein expression; type: cell-based, human; details: HCT116, 10 and 20 µM, 24 h, vs control cells
Protocol: The cell lysate was prepared after successive treatment using mammalian protein extraction buffer (Organic buffer + 10 mM NaCl + detergent pH 7.5) mixed with 1% protease/phosphatase inhibitor cocktail; protein was quantified with BCA assay, boiled at 95 °C for 10 min by adding sample loading buffer, separated using SDS-PAGE, and transferred into methanol-activated PVDF membrane. Primary antibodies were probed overnight in PVDF membrane at 4 °C and […] with subsequent HRP anti-mouse and anti-rabbit secondary antibodies at room temperature. Then, membranes were washed with TBST buffer, and images were detected by Amersham Imager 680 (GE Healthcare; Leiden, WZ, The Netherlands) using ECL solution. Band intensities were analyzed and quantified using Image J software (version 1.53i).

[6] = In vitro metabolic stability in liver microsomes; type: in vitro ADME, mouse
[7] = molecular target: T3, SK1 enzyme (Homo sapiens, UniProt Q9NYA1); assay: SK activity assay (Adapta screening system); type: biochemical; details: final concentration of 20 μM
T3 construct: purchased Thermo Fisher Scientific
T3 sequence (Q9NYA1 whole entry): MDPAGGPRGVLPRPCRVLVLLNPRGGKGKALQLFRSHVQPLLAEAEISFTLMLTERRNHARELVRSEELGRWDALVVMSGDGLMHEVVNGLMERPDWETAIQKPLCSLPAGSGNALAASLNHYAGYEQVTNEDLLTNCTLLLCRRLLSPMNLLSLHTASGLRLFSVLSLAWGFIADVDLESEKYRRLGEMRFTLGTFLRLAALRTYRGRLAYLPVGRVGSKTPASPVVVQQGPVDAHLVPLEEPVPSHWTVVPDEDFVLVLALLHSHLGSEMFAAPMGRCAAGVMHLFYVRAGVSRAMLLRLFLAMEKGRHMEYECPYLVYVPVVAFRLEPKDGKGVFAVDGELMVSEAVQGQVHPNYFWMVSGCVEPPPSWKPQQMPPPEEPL
Protocol: The effect of compounds in sphingosine kinase activity was examined using the […] screening system (Thermo Fisher Scientific System, Waltham, MA, USA). The kinase inhibition ability of compounds 1-11 along with RB005 was measured with final concentration of 20 μM. […] The data were presented as percentage inhibition of SK enzyme by individual compounds.

[8] = molecular target: CYP2C19 (Homo sapiens, UniProt P33261); assay: Inhibition of CYP enzymes activity, human liver microsomes; details: human liver microsomes 0.25 mg/mL, 10 μM, S-mephenytoin substrate
Sequence of CYP2C19 (P33261 whole entry): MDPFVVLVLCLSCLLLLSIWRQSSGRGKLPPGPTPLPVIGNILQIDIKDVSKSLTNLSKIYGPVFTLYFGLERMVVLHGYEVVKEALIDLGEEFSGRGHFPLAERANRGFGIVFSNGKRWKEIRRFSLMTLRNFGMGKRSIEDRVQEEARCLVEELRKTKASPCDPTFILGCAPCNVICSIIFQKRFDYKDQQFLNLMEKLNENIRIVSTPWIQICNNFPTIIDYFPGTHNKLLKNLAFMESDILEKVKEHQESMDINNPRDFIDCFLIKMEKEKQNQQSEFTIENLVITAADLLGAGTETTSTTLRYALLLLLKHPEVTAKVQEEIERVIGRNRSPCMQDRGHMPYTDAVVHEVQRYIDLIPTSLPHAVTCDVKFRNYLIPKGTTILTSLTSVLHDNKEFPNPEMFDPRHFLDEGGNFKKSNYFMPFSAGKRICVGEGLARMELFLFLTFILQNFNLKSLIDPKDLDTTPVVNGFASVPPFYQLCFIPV
Protocol: as §2, §3

[9] = system: HT29 cells; assay: Annexin V-FITC/PI staining, flow cytometry; type: cell-based, human; details: HT29, 10 and/or 20 µM, 24 h
Protocol: (§1) After treating HT29 and HCT116 cells with compounds 10, 11, 13 and FTY720 according to the manufacturer’s instruction, the annexin V and PI staining technique was employed to determine apoptosis in the cells. Briefly, cells (2.5 × 10^5 cells/well) were seeded in 12-well plates and treated with 10 and/or 20 µM of compounds for 24 h. Cells were collected using trypsin-EDTA and stained with annexin V-FITC dye for 15 min at room temperature, followed by PI staining for 20 min and analyzed by flow cytometer (MACSQuant Analyzer 10; Miltenyi Biotec, Bergisch Gladbach, Germany). The data was analyzed using MACSQuantify^TM version 2.8 software (Miltenyi Biotec, Bergisch Gladbach, Germany) and presented as early apoptosis, late apoptosis, or combined apoptosis percentage. Each experiment was repeated three times independently (n = 6).

[10] = system: HCT116 cells; assay: Annexin V-FITC/PI staining, flow cytometry; type: cell-based, human; details: HCT116, 10 and/or 20 µM, 24 h
Protocol: as §1

[11] = % remaining after 30 min, NADPH

For `CCCCCCCOc1ccc(CCN2CCN(CCO)CC2)cc1` [Compound 10, 2-(4-(4-(Heptyloxy)phenethyl)piperazin-1-yl)ethanol], the S1P level decrease [1] was 42%, the S1P level ([1]; HCT116, 10 and 20 µM, 24 h, vs nontreated control) was “significantly reduces” and the “CYP3A4 activity (% of control activity)” value [2] was over 100%. For the same compound, the “CYP1A2 activity (% of control activity)” value [3] was over 100%, the “liver microsomal stability, Rat (%)” value [4, 11] was 10.2% and the “liver microsomal stability (in words)” value ([4]; rat) was “unstable”. The “SK1 protein expression level” value [5] was “does not affect”, the “liver microsomal stability, Mouse (%)” value [6, 11] was 44.7% and the “liver microsomal stability (in words)” value ([6]; mouse) was “unstable”. The inhibition at 20 µM [7] was 20%, the “CYP2C19 activity (% of control activity)” value [8] was 96.5% and the “apoptosis (annexin V assay)” value [9] was “induced apoptosis”. For the same compound, the “apoptosis (annexin V assay)” value [10] was “induced apoptosis”.
